A word on the inhibition: it is how much of the control response was suppressed. A low value points to a response near the control.

27 compounds from patent US8173808B2, “Substituted naphthalenyl-pyrimidine compounds” (ArQule, Inc., priority 2009, dated 2012) can be followed below.

One assay concerns DLD-1. Put plainly: MTS assay, DLD-1. The assay is classed as cell-based. To be noted: Homo sapiens, 72 hours, 1 Percent FBS. The protocol: (§1) Cells were maintained at 37° C., 5% CO2 in DMEM media supplemented with 1% fetal bovine serum, penicillin/streptomycin and fungizone (Invitrogen). Cells were seeded into 96-well tissue culture plates at 3000 per well and cultured at 37° C. for 18 hours. Test compounds were dissolved and diluted to 300× in DMSO then diluted 1:40 in DMEM. Cells were incubated with test compounds for 72 hours followed by incubation with tetrazolium compound (3-(4,5-dimethylthiazol-2-yl)-5-(3-carboxymethoxyphenyl)-2-(4-sulfophenyl)-2H-tetrazolium, inner salt; MTS) and the electron coupling reagent, phenazine methosulfate (PMS) for 4 hours. […] The ability of compounds to inhibit cell growth in this assay is correlated with the reduction of dehydrogenase enzyme activity found in metabolically active cells. The measurement of the absorbance of the formazan was assessed using a Victor (Perkin Elmer) microplate reader at 492 nm. The calculated IC50 value is the concentration of the test compound that causes a 50% decrease in the absorbance.

The test system of another assay is MDA-MB-231. Put plainly: MTS assay, MDA-MB-231. The assay is classed as cell-based. As to conditions: Homo sapiens, 72 hours, 1 Percent FBS. The protocol:
as §1
(In general: Tetrazolium dyes change colour on reduction, which living cells bring about.)

`CCCCN(C)CCNCC(=O)Nc1cc(-c2ccnc(NC)n2)cc2ccc(OC)cc12` [Compound 51, N~2~-{2-[butyl(methyl)amino]ethyl}-N-{7-methoxy-3-[2-(methylamino)pyrimidin-4-yl]-1-naphthyl}glycinamide]: the inhibition at 10 µM was determined as 98% in the assay on DLD-1 and 93% with MDA-MB-231.

With `COc1ccc2cc(-c3ccnc(NCc4cncn4C)n3)cc(NC(=O)OC(C)(C)C)c2c1` [Compound 93, tert-butyl [7-methoxy-3-(2-{[(1-methyl-1H-imidazol-5-yl)methyl]amino}pyrimidin-4-yl)-1-naphthyl]carbamate], the inhibition at 10 µM in the assay with DLD-1 was found to be 96%; in the assay on MDA-MB-231 it was 72%.

On to `CCN1CCCC(Nc2nccc(-c3cc(N4CCOCC4)c4cc(OC)ccc4c3)n2)C1` (stereo not drawn) [Compound 14, N-(1-ethylpiperidin-3-yl)-4-(6-methoxy-4-morpholin-4-yl-2-naphthyl)pyrimidin-2-amine], for which the inhibition at 10 µM with DLD-1 was found to be 98%; with MDA-MB-231 it was 99%.

For the compound `COc1ccc2cc(-c3ccnc(NCC(C)(C)CN(C)C)n3)cc(NC(=O)OC(C)(C)C)c2c1` [Compound 105, tert-butyl [3-(2-{[3-(dimethylamino)-2,2-dimethylpropyl]amino}pyrimidin-4-yl)-7-methoxy-1-naphthyl]carbamate], the inhibition at 10 µM with DLD-1 was found to be 84%; with MDA-MB-231, 89%.

As to `COc1ccc2cc(-c3ccnc(NCC(C)(C)CN(C)C)n3)cc(N3CCOCC3)c2c1` [Compound 30, N′-[4-(6-methoxy-4-morpholin-4-yl-2-naphthyl)pyrimidin-2-yl]-N,N,2,2-tetramethylpropane-1,3-diamine], the inhibition at 10 µM came to 63% in the assay with DLD-1 and 78% with MDA-MB-231.

`CNc1nccc(-c2cc(NC(=O)CN3CCN(CC(=O)N(C)C)CC3)c3cc(OC)ccc3c2)n1` [Compound 52, 2-{4-[2-({7-methoxy-3-[2-(methylamino)pyrimidin-4-yl]-1-naphthyl}amino)-2-oxoethyl]piperazin-1-yl}-N,N-dimethylacetamide]: the inhibition at 10 µM in the assay with DLD-1 was determined as 99%; in the assay with MDA-MB-231 it was 96%.

Regarding `CNc1nccc(-c2cc(NC(=O)CN3CCN(CCO)CC3)c3cc(OC)ccc3c2)n1` [Compound 38, 2-[4-(2-hydroxyethyl)piperazin-1-yl]-N-{7-methoxy-3-[2-(methylamino)pyrimidin-4-yl]-1-naphthyl}acetamide], the inhibition at 10 µM in the assay on DLD-1 and with MDA-MB-231 was 98% in each case.

Regarding `COc1ccc2cc(-c3ccnc(NC4CC(C)(C)N(C)C(C)(C)C4)n3)cc(N3CCOCC3)c2c1` [Compound 26, 4-(6-methoxy-4-morpholin-4-yl-2-naphthyl)-N-(1,2,2,6,6-pentamethylpiperidin-4-yl)pyrimidin-2-amine], the results for the inhibition at 10 µM in the assay with DLD-1 and with MDA-MB-231 were 92% and 98%, respectively.

On to `COCCNc1nccc(-c2cc(N3CCOCC3)c3cc(OC)ccc3c2)n1` [Compound 23, N-(2-methoxyethyl)-4-(6-methoxy-4-morpholin-4-yl-2-naphthyl)pyrimidin-2-amine], for which the inhibition at 10 µM came to 98% in the assay on DLD-1 and 91% with MDA-MB-231.

`CNc1nccc(-c2cc(NC3CCN(c4nc(C)cc(C(=O)OC)n4)CC3)c3cc(OC)ccc3c2)n1` [Compound 163, methyl 2-[4-({7-methoxy-3-[2-(methylamino)pyrimidin-4-yl]-1-naphthyl}amino)piperidin-1-yl]-6-methylpyrimidine-4-carboxylate]: the values for the inhibition at 10 µM with DLD-1 and with MDA-MB-231 were 97% and 98%, respectively.

Regarding `CCN(CC)CCCCNCC(=O)Nc1cc(-c2ccnc(NC)n2)cc2ccc(OC)cc12` [Compound 73, N~2~-[4-(diethylamino)butyl]-N-{7-methoxy-3-[2-(methylamino)pyrimidin-4-yl]-1-naphthyl}glycinamide], the inhibition at 10 µM in the assay with DLD-1 and with MDA-MB-231 was 98% in each case.

For `COc1ccc2cc(-c3ccnc(NCCc4cccc(OC)c4OC)n3)cc(N3CCNCC3)c2c1` [Compound 129, N-[2-(2,3-dimethoxyphenyl)ethyl]-4-(6-methoxy-4-piperazin-1-yl-2-naphthyl)pyrimidin-2-amine], the inhibition at 10 µM in the assay with DLD-1 came to 97%; with MDA-MB-231, 99%.

With `CNc1nccc(-c2cc(NC(=O)CN3CCN(CCn4cccc4)CC3)c3cc(OC)ccc3c2)n1` [Compound 82, N-{7-methoxy-3-[2-(methylamino)pyrimidin-4-yl]-1-naphthyl}-2-{4-[2-(1H-pyrrol-1-yl)ethyl]piperazin-1-yl}acetamide], the inhibition at 10 µM in the assay on DLD-1 is 96%; in the assay with MDA-MB-231, 80%.

On to `COCCNc1nccc(-c2cc(NC(=O)OC(C)(C)C)c3cc(OC)ccc3c2)n1` [Compound 100, tert-butyl (7-methoxy-3-{2-[(2-methoxyethyl)amino]pyrimidin-4-yl}-1-naphthyl)carbamate], for which the inhibition at 10 µM was found to be 70% in the assay with DLD-1 and 31% in the assay on MDA-MB-231.

As for `COc1ccc2cc(-c3ccnc(NC4CC(C)(C)N(C)C(C)(C)C4)n3)cc(N3CCNCC3)c2c1` [Compound 118, 4-(6-methoxy-4-piperazin-1-yl-2-naphthyl)-N-(l,2,2,6,6-pentamethylpiperidin-4-yl)pyrimidin-2-amine], the inhibition at 10 µM in the assay on DLD-1 and in the assay on MDA-MB-231 was 96% throughout.

Regarding `COc1ccc2cc(-c3ccnc(NCc4cccc(C(F)(F)F)c4)n3)cc(N3CCNCC3)c2c1` [Compound 127, 4-(6-methoxy-4-piperazin-1-yl-2-naphthyl)-N-[3-(trifluoromethyl)benzyl] pyrimidin-2-amine], the inhibition at 10 µM with DLD-1 was 97%; in the assay with MDA-MB-231, 99%.

In the case of `CNc1nccc(-c2cc(NC3CCN(c4ncnc5nc[nH]c45)CC3)c3cc(OC)ccc3c2)n1` [Compound 157, 4-(6-methoxy-4-{[1-(9H-purin-6-yl)piperidin-4-yl]amino}-2-naphthyl)-N-methylpyrimidin-2-amine], the inhibition at 10 µM in the assay with DLD-1 is 46%; in the assay on MDA-MB-231, 75%.

For `COc1ccc2cc(-c3ccnc(NC4CC(C)(C)N(C)C(C)(C)C4)n3)cc(NC(=O)OC(C)(C)C)c2c1` [Compound 103, tert-butyl (7-methoxy-3-{2-[(1,2,2,6,6-pentamethylpiperidin-4-yl)amino]pyrimidin-4-yl}-1-naphthyl)carbamate], the inhibition at 10 µM turned out to be 74% in the assay with DLD-1 and 89% with MDA-MB-231.

For `CNc1nccc(-c2cc(NC(=O)CNCC(C)(C)CO)c3cc(OC)ccc3c2)n1` [Compound 50, N~2~-(3-hydroxy-2,2-dimethylpropyl)-N-{7-methoxy-3-[2-(methylamino)pyrimidin-4-yl]-1-naphthyl}glycinamide], the results for the inhibition at 10 µM in the assay with DLD-1 and in the assay on MDA-MB-231 were 97% and 94%, respectively.

In the case of `COc1ccc2cc(-c3ccnc(NC4CCN(C)CC4)n3)cc(N3CCOCC3)c2c1` [Compound 7, 4-(6-methoxy-4-morpholin-4-yl-2-naphthyl)-N-(1-methylpiperidin-4-yl)pyrimidin-2-amine], the inhibition at 10 µM in the assay on DLD-1 is 68%; in the assay on MDA-MB-231 it was 62%.

As for `COc1ccc2cc(-c3ccnc(NCCc4ccc(OC)c(OC)c4)n3)cc(N3CCOCC3)c2c1` [Compound 18, N-[2-(3,4-dimethoxyphenyl)ethyl]-4-(6-methoxy-4-morpholin-4-yl-2-naphthyl)pyrimidin-2-amine], the inhibition at 10 µM in the assay with DLD-1 worked out at 88%; with MDA-MB-231, 31%.

On to `COc1ccc2cc(-c3ccnc(NCc4ccc(OC)c(OC)c4)n3)cc(N3CCOCC3)c2c1` [Compound 9, N-(3,4-dimethoxybenzyl)-4-(6-methoxy-4-morpholin-4-yl-2-naphthyl)pyrimidin-2-amine], for which the results for the inhibition at 10 µM with DLD-1 and in the assay on MDA-MB-231 were 99% and 82%, respectively.

Consider `COc1ccc2cc(-c3ccnc(NCCN4CCCC4)n3)cc(N3CCNCC3)c2c1` [Compound 133, 4-(6-methoxy-4-piperazin-1-yl-2-naphthyl)-N-(2-pyrrolidin-1-ylethyl)pyrimidin-2-amine], for which the inhibition at 10 µM in the assay on DLD-1 was found to be 97%; in the assay with MDA-MB-231 it was 98%.

Take `CNc1nccc(-c2cc(NC(=O)CN3CCN(CC4CCN(C)CC4)CC3)c3cc(OC)ccc3c2)n1` [Compound 41, N-{7-methoxy-3-[2-(methylamino)pyrimidin-4-yl]-1-naphthyl}-2-{4-[(l-methylpiperidin-4-yl)methyl]piperazin-1-yl}acetamide]: the values for the inhibition at 10 µM in the assay on DLD-1 and in the assay on MDA-MB-231 were 66% and 71%, respectively.

For `COc1ccc2cc(-c3ccnc(NCC(C)(C)CN(C)C)n3)cc(N3CCNCC3)c2c1` [Compound 136, N′-[4-(6-methoxy-4-piperazin-1-yl-2-naphthyl)pyrimidin-2-yl]-N,N,2,2-tetramethylpropane-1,3-diamine], the figures for the inhibition at 10 µM in the assay with DLD-1 and in the assay on MDA-MB-231 were 97% and 95%, respectively.

Turning to `COc1ccc2cc(-c3ccnc(NCCN(C)C)n3)cc(N3CCNCC3)c2c1` [Compound 125, N′-[4-(6-methoxy-4-piperazin-1-yl-2-naphthyl)pyrimidin-2-yl]-N,N-dimethylethane-1,2-diamine], the inhibition at 10 µM with DLD-1 and with MDA-MB-231 was 96% each time.

On to `COc1ccc(CNc2nccc(-c3cc(N4CCOCC4)c4cc(OC)ccc4c3)n2)cc1` [Compound 28, N-(4-methoxybenzyl)-4-(6-methoxy-4-morpholin-4-yl-2-naphthyl)pyrimidin-2-amine], for which the inhibition at 10 µM in the assay on DLD-1 came to 98%; with MDA-MB-231, 99%.
